Our source for the IC50 values is patent US9932314B2, “Pyrazole compounds and their use as T-type calcium channel blockers” (IDORSIA PHARMACEUTICALS LTD, priority 2015, dated 2018).

The target of this assay is T1, voltage-dependent T-type calcium channel subunit alpha-1G (Cav3.2) (Homo sapiens, UniProt O95180).
T1 construct: expressed in transfected cells; host or cells: HEK293
T1 sequence (O95180 whole entry): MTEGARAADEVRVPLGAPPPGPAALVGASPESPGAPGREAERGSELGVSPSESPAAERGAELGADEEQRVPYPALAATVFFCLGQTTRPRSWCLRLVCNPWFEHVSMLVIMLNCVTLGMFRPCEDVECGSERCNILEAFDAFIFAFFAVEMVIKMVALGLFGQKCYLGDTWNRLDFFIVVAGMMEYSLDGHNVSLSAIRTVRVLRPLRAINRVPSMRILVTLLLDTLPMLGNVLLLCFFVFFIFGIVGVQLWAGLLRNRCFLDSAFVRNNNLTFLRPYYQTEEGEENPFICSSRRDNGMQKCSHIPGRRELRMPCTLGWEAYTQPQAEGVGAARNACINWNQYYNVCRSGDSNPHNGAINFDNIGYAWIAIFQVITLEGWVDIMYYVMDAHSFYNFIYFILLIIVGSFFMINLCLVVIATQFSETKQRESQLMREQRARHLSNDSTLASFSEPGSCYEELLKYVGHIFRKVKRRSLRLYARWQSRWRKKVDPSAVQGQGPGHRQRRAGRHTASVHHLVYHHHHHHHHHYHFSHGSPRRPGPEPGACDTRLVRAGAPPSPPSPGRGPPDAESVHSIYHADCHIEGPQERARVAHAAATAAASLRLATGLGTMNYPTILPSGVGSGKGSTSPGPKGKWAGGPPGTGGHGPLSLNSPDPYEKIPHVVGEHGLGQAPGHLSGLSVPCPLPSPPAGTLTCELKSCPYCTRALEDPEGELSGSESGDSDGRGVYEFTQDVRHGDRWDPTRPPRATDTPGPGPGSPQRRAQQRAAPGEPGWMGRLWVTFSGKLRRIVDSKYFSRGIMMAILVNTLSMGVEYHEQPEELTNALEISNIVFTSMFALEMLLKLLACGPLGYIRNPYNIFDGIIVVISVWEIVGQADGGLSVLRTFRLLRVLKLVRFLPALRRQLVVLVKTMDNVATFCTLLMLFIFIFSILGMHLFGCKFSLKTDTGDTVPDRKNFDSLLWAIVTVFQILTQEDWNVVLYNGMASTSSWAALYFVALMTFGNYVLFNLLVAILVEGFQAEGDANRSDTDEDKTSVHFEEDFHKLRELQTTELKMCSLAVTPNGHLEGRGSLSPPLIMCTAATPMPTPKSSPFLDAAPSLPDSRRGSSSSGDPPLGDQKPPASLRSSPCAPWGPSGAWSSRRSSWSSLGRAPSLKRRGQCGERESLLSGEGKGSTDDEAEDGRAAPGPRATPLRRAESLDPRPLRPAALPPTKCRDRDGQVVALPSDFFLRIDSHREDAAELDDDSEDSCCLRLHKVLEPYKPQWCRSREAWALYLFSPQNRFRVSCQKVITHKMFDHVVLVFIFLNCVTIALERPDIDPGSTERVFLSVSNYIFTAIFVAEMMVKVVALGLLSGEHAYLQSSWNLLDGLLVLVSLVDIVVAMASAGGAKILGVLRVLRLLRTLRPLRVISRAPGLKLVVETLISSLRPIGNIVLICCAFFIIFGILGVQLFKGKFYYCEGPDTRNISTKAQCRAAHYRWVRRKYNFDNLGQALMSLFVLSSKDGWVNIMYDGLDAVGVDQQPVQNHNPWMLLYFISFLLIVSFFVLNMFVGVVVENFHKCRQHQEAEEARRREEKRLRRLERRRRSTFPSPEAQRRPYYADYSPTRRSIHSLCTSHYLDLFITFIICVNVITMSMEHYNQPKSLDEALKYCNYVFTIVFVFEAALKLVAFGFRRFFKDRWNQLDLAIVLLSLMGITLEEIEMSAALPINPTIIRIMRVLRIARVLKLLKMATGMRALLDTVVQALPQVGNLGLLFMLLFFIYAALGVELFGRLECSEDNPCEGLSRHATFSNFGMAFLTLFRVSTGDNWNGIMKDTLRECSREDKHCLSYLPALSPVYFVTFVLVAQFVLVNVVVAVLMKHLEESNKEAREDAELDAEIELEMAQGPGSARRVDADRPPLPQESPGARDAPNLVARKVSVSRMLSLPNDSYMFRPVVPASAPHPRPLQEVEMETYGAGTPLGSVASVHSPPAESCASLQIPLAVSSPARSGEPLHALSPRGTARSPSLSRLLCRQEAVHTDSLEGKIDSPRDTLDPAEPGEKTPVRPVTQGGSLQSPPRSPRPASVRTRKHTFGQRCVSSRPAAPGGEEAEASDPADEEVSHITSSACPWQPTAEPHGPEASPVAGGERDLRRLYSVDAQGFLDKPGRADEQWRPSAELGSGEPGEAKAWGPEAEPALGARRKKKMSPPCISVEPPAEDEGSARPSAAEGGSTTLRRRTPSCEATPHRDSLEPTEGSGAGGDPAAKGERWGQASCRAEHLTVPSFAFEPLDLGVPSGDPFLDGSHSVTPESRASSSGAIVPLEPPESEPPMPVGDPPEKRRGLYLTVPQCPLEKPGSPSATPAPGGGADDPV
Kind of assay: FLIPR calcium flux assay, HEK293 cells recombinantly expressing Cav3.2. Type of assay: cell-based. The note with it: Cav3.2-channel, Fluo-4-AM, 3 min incubation, stimulation with 10 mM CaCl2. A digest of the protocol:
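Calcium influx was triggered by adding CaCl2 to 10 mM final, 3 min after compounds in tetraethylammonium-based buffer, pH 7.2, reached Fluo-4-AM-loaded recombinant HEK293 cells. The integrated kinetic fluorescence signal per concentration gave concentration-response curves by non-linear sigmoidal regression.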
As a reminder, the IC50 is the concentration that inhibits the measured activity by half. Take `CC(C)c1ccc(CC(=O)Nc2ccn(Cc3ccc(C#N)c(C(F)F)n3)n2)cc1` [Example 385, N-[1-(5-Cyano-6-difluoromethyl-pyridin-2-ylmethyl)-1H-pyrazol-3-yl]-2-(4-isopropyl-phenyl)-acetamide]: the IC50 is 44 nM.
With `CC(C)c1ccc(CC(=O)Nc2ccn(Cc3cc(C(F)F)c(C#N)cn3)n2)cc1` [Example 386, N-[1-(5-cyano-4-difluoromethyl-pyridin-2-ylmethyl)-1H-pyrazol-3-yl]-2-(4-isopropyl-phenyl)-acetamide], the IC50 came to 69 nM.
Next, `CC1(C)COc2cc(CC(=O)Nc3ccn(Cc4ccc(C#N)cn4)n3)ccc21` [Example 387, N-[1-(5-Cyano-pyridin-2-ylmethyl)-1H-pyrazol-3-yl]-2-(3,3-dimethyl-2,3-dihydro-benzofuran-6-yl)-acetamide]: 122 nM; `N#Cc1cnc(Cn2ccc(NC(=O)Cc3ccc(C4(C(F)(F)F)CC4)cc3)n2)c(F)c1` [Example 389, N-[1-(5-Cyano-3-fluoro-pyridin-2-ylmethyl)-1H-pyrazol-3-yl]-2-[4-(1-trifluoromethyl-cyclopropyl)-phenyl]-acetamide]: 506 nM; `N#Cc1ccc(Cn2ccc(NC(=O)Cc3ccc(C4(C#N)CC(F)(F)C4)cc3)n2)nc1` [Example 390, 2-[4-(1-Cyano-3,3-difluoro-cyclobutyl)-phenyl]-N-[1-(5-cyano-pyridin-2-ylmethyl)-1H-pyrazol-3-yl]-acetamide]: 47 nM.
Next, `Cc1cc(CC(=O)Nc2ccn(Cc3ccc(F)c(C#N)n3)n2)ccc1OCC(F)(F)F` [Example 391, N-[1-(6-Cyano-5-fluoro-pyridin-2-ylmethyl)-1H-pyrazol-3-yl]-2-[3-methyl-4-(2,2,2-trifluoro-ethoxy)-phenyl]-acetamide]: 2.1 nM.
With `CC(C)Cc1ccc(CC(=O)Nc2ccn(Cc3ccc(C#N)cn3)n2)cc1C#N` [Example 392, 2-(3-Cyano-4-isobutyl-phenyl)-N-[1-(5-cyano-pyridin-2-ylmethyl)-1H-pyrazol-3-yl]-acetamide], the IC50 was found to be 101 nM.
Regarding `CC(C)Cc1ccc(CC(=O)Nc2ccn(Cc3ccc(F)c(F)c3)n2)cc1C#N` [Example 393, 2-(3-Cyano-4-isobutyl-phenyl)-N-[1-(3,4-difluoro-benzyl)-1H-pyrazol-3-yl]-acetamide], the IC50 worked out at 51 nM.
On to `CC(C)c1ccc(CC(=O)Nc2ccn(Cc3ccc(N4CCC4)cn3)n2)cc1` [Example 394, N-[1-(5-Azetidin-1-yl-pyridin-2-ylmethyl)-1H-pyrazol-3-yl]-2-(4-isopropyl-phenyl)-acetamide], for which the IC50 was found to be 126 nM.
Regarding `CC(C)c1ccc(CC(=O)Nc2ccn(Cc3ccc(N4CCCC4)cn3)n2)cc1` [Example 395, 2-(4-Isopropyl-phenyl)-N-[1-(5-pyrrolidin-1-yl-pyridin-2-ylmethyl)-1H-pyrazol-3-yl]-acetamide], the IC50 worked out at 315 nM.
`CC(C)c1ccc(CC(=O)Nc2ccn(Cc3ccc(N4CCC(F)(F)C4)cn3)n2)cc1` [Example 396, N-{1-[5-(3,3-Difluoro-pyrrolidin-1-yl)-pyridin-2-ylmethyl]-1H-pyrazol-3-yl}-2-(4-isopropyl-phenyl)-acetamide]: the IC50 amounted to 369 nM.
For the molecule `N#Cc1ccc(Cn2ccc(NC(=O)Cc3ccc(OCC4CC4)c(OC(F)(F)F)c3)n2)nc1` [Example 397, N-[1-(5-Cyano-pyridin-2-ylmethyl)-1H-pyrazol-3-yl]-2-(4-cyclopropylmethoxy-3-trifluoromethoxy-phenyl)-acetamide], the concentration for half-maximal inhibition (IC50) is 44 nM.
Regarding `O=C(Cc1ccc(OCC2CC2)c(OC(F)(F)F)c1)Nc1ccn(Cc2ccc(F)c(F)c2)n1` [Example 398, 2-(4-Cyclopropylmethoxy-3-trifluoromethoxy-phenyl)-N-[1-(3,4-difluoro-benzyl)-1H-pyrazol-3-yl]-acetamide], the IC50 was 39 nM.
Take `Cc1cc(CC(=O)Nc2ccn(Cc3cc(C#N)c(F)cn3)n2)ccc1OCC(F)(F)F` [Example 399, N-[1-(4-Cyano-5-fluoro-pyridin-2-ylmethyl)-1H-pyrazol-3-yl]-2-[3-methyl-4-(2,2,2-trifluoro-ethoxy)-phenyl]-acetamide]: the IC50 was 60 nM.
Next, `CC(C)(C)c1ccc(CC(=O)Nc2ccn(Cc3cc(C#N)c(F)cn3)n2)cc1` [Example 400, 2-(4-tert-Butyl-phenyl)-N-[1-(4-cyano-5-fluoro-pyridin-2-ylmethyl)-1H-pyrazol-3-yl]-acetamide]: 49 nM.
The result for `CC(C)c1ccc(CC(=O)Nc2ccn(Cc3cc(C#N)c(F)cn3)n2)cc1` [Example 401, N-[1-(4-Cyano-5-fluoro-pyridin-2-ylmethyl)-1H-pyrazol-3-yl]-2-(4-isopropyl-phenyl)-acetamide] reads 126 nM; that for `N#Cc1cc(Cn2ccc(NC(=O)Cc3ccc(C4(C(F)(F)F)CC4)cc3)n2)ncc1F` [Example 402, N-[1-(4-Cyano-5-fluoro-pyridin-2-ylmethyl)-1H-pyrazol-3-yl]-2-[4-(1-trifluoromethyl-cyclopropyl)-phenyl]-acetamide], 106 nM; that for `N#Cc1ccc(Cn2ccc(NC(=O)Cc3ccc(C4(C#N)CC4)c(C(F)(F)F)c3)n2)nc1` [Example 403, 2-[4-(1-Cyano-cyclopropyl)-3-trifluoromethyl-phenyl]-N-[1-(5-cyano-pyridin-2-ylmethyl)-1H-pyrazol-3-yl]-acetamide], 97 nM.
Turning to `N#CC1(c2ccc(CC(=O)Nc3ccn(Cc4ccc(F)c(F)c4)n3)cc2C(F)(F)F)CC1` [Example 404, 2-[4-(1-Cyano-cyclopropyl)-3-trifluoromethyl-phenyl]-N-[1-(3,4-difluoro-benzyl)-1H-pyrazol-3-yl]-acetamide], the IC50 amounted to 14 nM.
For the molecule `N#Cc1ccc(Cn2ccc(NC(=O)Cc3ccc(OCC(F)(F)F)c(C4CC4)c3)n2)nc1` [Example 406, N-[1-(5-Cyano-pyridin-2-ylmethyl)-1H-pyrazol-3-yl]-2-[3-cyclopropyl-4-(2,2,2-trifluoro-ethoxy)-phenyl]-acetamide], the IC50 is 15 nM.
Next, `N#Cc1nc(Cn2ccc(NC(=O)Cc3ccc(OCC(F)(F)F)c(C4CC4)c3)n2)ccc1F` [Example 408, N-[1-(6-Cyano-5-fluoro-pyridin-2-ylmethyl)-1H-pyrazol-3-yl]-2-[3-cyclopropyl-4-(2,2,2-trifluoro-ethoxy)-phenyl]-acetamide]: 8.5 nM.
The result for `N#Cc1cc(Cn2ccc(NC(=O)Cc3ccc(OCC(F)(F)F)c(C4CC4)c3)n2)ncc1F` [Example 409, N-[1-(4-Cyano-5-fluoro-pyridin-2-ylmethyl)-1H-pyrazol-3-yl]-2-[3-cyclopropyl-4-(2,2,2-trifluoro-ethoxy)-phenyl]-acetamide] reads 43 nM; that for `Cc1cc(CC(=O)Nc2ccn(Cc3ccc(F)c(C#N)n3)n2)ccc1OC(F)(F)F` [Example 410, N-[1-(6-Cyano-5-fluoro-pyridin-2-ylmethyl)-1H-pyrazol-3-yl]-2-(3-methyl-4-trifluoromethoxy-phenyl)-acetamide], 17 nM.
Regarding `CCc1cc(CC(=O)Nc2ccn(Cc3ccc(F)c(C#N)n3)n2)ccc1OCC(F)(F)F` [Example 412, N-[1-(6-Cyano-5-fluoro-pyridin-2-ylmethyl)-1H-pyrazol-3-yl]-2-[3-ethyl-4-(2,2,2-trifluoro-ethoxy)-phenyl]-acetamide], the IC50 was 5.3 nM.
